Like-named read-outs stand apart in the source and are kept apart here.
Tested on: Ctenocephalides felis
Procedure: b) Ctenocephalides felis Adulticide Assay: C. felis Single Dose Screen
Mortality of fleas was the primary endpoint in the assay. Fleas were considered dead if they didn't move or were on their sides and unable to walk or right themselves. […] The concentration chosen (1.26 μg/cm^2) was higher than that known to kill 90% of cat fleas (LC90) using the reference compound, permethrin.
The test species was the cat flea (Ctenocephalides felis). The strain used was obtained from external suppliers as pupae and held in the laboratory under testing conditions until the adults had emerged. Fifteen (15) fleas were used in a minimum of four replicates against a single concentration level (approximately 60 fleas). The insects were selected to be in the adult life stage, aged between 3 and 7 days post emergence.
The compounds to be tested were supplied as solids and were prepared in acetone as described below prior to testing. Samples were stored in a refrigerator (5±1° C.) unless otherwise specified.
During the mortality testing, the temperature was maintained at 25±1° C. Humidity was maintained at 75±5%. The base (area=159 mm^2) of a 100 mL glass Erlenmeyer (conical) flask provided the treatment surface. Flasks were pretreated with Coatasil™ glass treatment to maximise bio-availability of test compounds by preventing them from binding to glass the surface. The base of the 100 mL Erlenmeyer flask was treated with 0.5 mL of test sample in acetone and gently swirled. This volume was sufficient to cover the base of the flask. Flasks were left to dry for 24 hours before flea exposure.
Adult cat fleas were placed into a sorting chamber, which allowed fleas to jump into the Erlenmeyer flasks. Fifteen (15) adult cat fleas were collected in each flask. The top of the flasks were then covered in Parafilm™ and small holes were made to allow gas exchange. A 0.5 mL volume of acetone as a solvent control was applied to the base of an Erlenmeyer flask and the testing proceeded in the same manner described above. Cat fleas in the treatment containers were held under testing conditions for 8, 24 and/or 48 hours. Mortality was recorded at 8, 24, 8 and 24, or 24 and 48 hours Pooled 8, 24, 8 and 24, and 24 and 48 hour mortality data were converted to percentages and are summarized by Table 21, below.

| SMILES | C. felis Mortality (%) 8 h [%] | C. felis Mortality (%) 24 h [%] | C. felis Mortality (%) 8 h (8 h, data from laboratory 1) [%] | C. felis Mortality (%) 24 h (24 h, data from laboratory 1) [%] |
| --- | --- | --- | --- | --- |
| O=S(=O)(Nc1ccc(Cl)cc1-c1ccnn1-c1ccc(Cl)cc1)C(F)(F)F [Compound 108, N-[2-(1-4′-chlorophenyl-1H-pyrazol-5-yl)-4-chlorophenyl]-trifluoromethanesulfonamide] | 0 | 64 | – | – |
| COCN(c1ccc(Cl)cc1C(C)=NN(C)c1ccccc1)S(=O)(=O)C(F)(F)F [Compound 110] | – | – | 6 | 52 |
| CC(=NN(C)c1ccccc1)c1cc(Cl)ccc1N(COC(=O)C(C)(C)C)S(=O)(=O)C(F)(F)F [Compound 111] | – | – | 14 | 32 |
| CC(=NN(C)C)c1cc(Cl)ccc1NS(=O)(=O)C(F)(F)F [Compound 113] | – | – | 3 | 66 |
| CC(=NN(C)c1ccccc1)c1ccccc1NS(=O)(=O)C(F)(F)F [Compound 114, N-[2-[1-(N′-methyl-N′-phenyl)hydrazono]ethyl-phenyl]-trifluoromethanesulfonamide] | 56 | 86 | – | – |
| CC(=NN(C)c1ccccc1)c1cccc(Cl)c1NS(=O)(=O)C(F)(F)F [Compound 115] | – | – | 10 | 63 |
| CN(N=C(c1cc(Cl)ccc1NS(=O)(=O)C(F)(F)F)C1CCCCC1)c1ccccc1 [Compound 119] | – | – | 7 | 14 |
| O=S(=O)(Nc1ccc(Cl)cc1C(=NNc1ccc(Cl)cc1)c1ccccc1)C(F)(F)F [Compound 121] | – | – | 12 | 41 |
| CC(=NNc1ccc(Cl)cc1)c1ccccc1NS(=O)(=O)C(F)(F)F [Compound 122] | – | – | 23 | 26 |
| CN(C)N=C(c1ccccc1)c1cc(Cl)ccc1NS(=O)(=O)C(F)(F)F [Compound 123, N-[2-[1-dimethylhydrazono-1-phenyl]methyl-4-chlorophenyl]-trifluoromethanesulfonamide] | 9 | 45 | – | – |
| CCC(=NN1CCCC1)c1cc(Cl)ccc1NS(=O)(=O)C(F)(F)F [Compound 128] | – | – | 12 | 36 |
| C#CCN(c1ccc(Cl)cc1C(C)=NN1CCCCC1)S(=O)(=O)C(F)(F)F [Compound 133, N-[2-[1-(1-piperidyl)imino]ethyl-4-chlorophenyl]-N-propargyltrifluoromethanesulfonamide] | 5 | 66 | – | – |
| CC(=NN1CCCCC1)c1cc(Cl)ccc1N(C)S(=O)(=O)C(F)(F)F [Compound 134] | – | – | 7 | 14 |
| CCN(c1ccc(Cl)cc1C(C)=NN1CCCCC1)S(=O)(=O)C(F)(F)F [Compound 135, N-[2-[1-(1-piperidyl)imino]ethyl-4-chlorophenyl]-N-ethyl-trifluoromethanesulfonamide] | 8 | 41 | – | – |
| CC(C)=CCN(c1ccc(Cl)cc1C(C)=NN(C)c1ccccc1)S(=O)(=O)C(F)(F)F [Compound 136] | – | – | 7 | 13 |
| C#CCN(c1ccc(Cl)cc1C(C)=NN(C)c1ccccc1)S(=O)(=O)C(F)(F)F [Compound 137] | – | – | 6 | 19 |
| CC(=NN(C)C(=O)c1ccccc1)c1cc(Cl)ccc1NS(=O)(=O)C(F)(F)F [Compound 138] | – | – | 20 | 66 |
| CC(=NN(C)c1cc(Cl)ccc1Cl)c1cc(Cl)ccc1NS(=O)(=O)C(F)(F)F [Compound 141] | – | – | 13 | 75 |
| CCN(N=C(C)c1cc(Cl)ccc1NS(=O)(=O)C(F)(F)F)c1cc(Cl)ccc1Cl [Compound 142] | – | – | 12 | 46 |
| CCCN(N=C(C)c1cc(Cl)ccc1NS(=O)(=O)C(F)(F)F)c1cc(Cl)ccc1Cl [Compound 143] | – | – | 13 | 53 |
| CC(=NN(c1cc(Cl)ccc1Cl)C(C)C)c1cc(Cl)ccc1NS(=O)(=O)C(F)(F)F [Compound 144] | – | – | 7 | 42 |
| CCOCN(c1ccc(Cl)cc1C(C)=NN1CCCCC1)S(=O)(=O)C(F)(F)F [Compound 145] | – | – | 8 | 35 |
| COCN(c1ccc(Cl)cc1C(C)=NN1CCCCC1)S(=O)(=O)C(F)(F)F [Compound 146] | – | – | 12 | 24 |
| CC(=NNc1ccc(C)cc1)c1cc(Cl)ccc1NS(=O)(=O)C(F)(F)F [Compound 155] | – | – | 7 | 28 |

| SMILES | C. felis Mortality (%) 8 h [%] | C. felis Mortality (%) 24 h [%] | C. felis Mortality (%) 8 h (8 h, data from laboratory 1) [%] | C. felis Mortality (%) 24 h (24 h, data from laboratory 1) [%] |
| --- | --- | --- | --- | --- |
| CCOC(=O)N(CCC(C)C)N=C(C)c1cc(Cl)ccc1NS(=O)(=O)C(F)(F)F [Compound 158] | 5 | 28 | – | – |
| CC(=NN1CCCCC1)c1cccc(NS(=O)(=O)C(F)(F)F)c1 [Compound 161] | – | – | 7 | 16 |
| CC(=NN(C)c1ccccc1)c1cc(NS(=O)(=O)C(F)(F)F)ccc1Cl [Compound 162] | – | – | 8 | 58 |
| CC(=NN(C)c1ccccc1)c1cccc(NS(=O)(=O)C(F)(F)F)c1 [Compound 163, N-[3-[1-(N′-methyl-N′-phenyl)hydrazono]ethylphenyl]-trifluoromethanesulfonamide] | 8 | 18 | – | – |
| CC(=NN(C)c1ccccc1)c1ccc(NS(=O)(=O)C(F)(F)F)cc1 [Compound 164] | – | – | 8 | 72 |
| CC(=NNc1ccc(Cl)cc1)c1ccc(NS(=O)(=O)C(F)(F)F)cc1 [Compound 165] | – | – | 6 | 7 |
| CC(=NN1CCCCC1)c1ccc(NS(=O)(=O)C(F)(F)F)cc1 [Compound 167] | – | – | 2 | 5 |
| C=CCN(N=C(C)c1cc(Cl)ccc1N(CC=C)S(=O)(=O)C(F)(F)F)c1ccc(Cl)cc1 [Compound 170] | – | – | 2 | 24 |
| C=CCN(N=C(C)c1cc(Cl)ccc1NS(=O)(=O)C(F)(F)F)c1ccc(Cl)cc1 [Compound 171] | – | – | 7 | 54 |
| CC(=NN(C)c1ccccc1)c1cc2c(cc1NS(=O)(=O)C(F)(F)F)OCO2 [Compound 172] | – | – | 5 | 31 |
| C=CCN(N=C(C)c1cc(Cl)ccc1NS(=O)(=O)C(F)(F)F)c1ccccc1 [Compound 173] | – | – | 17 | 59 |
| CC(=NNS(=O)(=O)c1ccc(C)cc1)c1cc(Cl)ccc1NS(=O)(=O)C(F)(F)F [Compound 174] | – | – | 5 | 27 |
| C#CCN(N=C(C)c1cc(Cl)ccc1NS(=O)(=O)C(F)(F)F)c1ccccc1 [Compound 175] | – | – | 5 | 38 |
| CC(=NN1CCCCC1)c1ccccc1NS(=O)(=O)C(F)(F)F [Compound 176] | – | – | 7 | 31 |
| CC(=NN1CCCCC1)c1ccc(C(F)(F)F)cc1NS(=O)(=O)C(F)(F)F [Compound 177] | – | – | 3 | 22 |
| CC(=NNc1ccc(F)cc1)c1ccccc1NS(=O)(=O)C(F)(F)F [Compound 178] | – | – | 4 | 29 |
| CC(=NNc1ccc(Cl)cc1)c1ccc(C(F)(F)F)cc1NS(=O)(=O)C(F)(F)F [Compound 179] | – | – | 3 | 25 |
| CC(=NNc1ccc(F)cc1)c1ccc(C(F)(F)F)cc1NS(=O)(=O)C(F)(F)F [Compound 180] | – | – | 0 | 16 |
| CC(=NN1CCCCC1)c1cc2c(cc1NS(=O)(=O)C(F)(F)F)OCO2 [Compound 181] | – | – | 7 | 16 |
| CCN(N=C(C)c1ccccc1NS(=O)(=O)C(F)(F)F)c1ccc(Cl)cc1 [Compound 182] | – | – | 5 | 29 |
| CC(=O)N(N=C(C)c1cc(Cl)ccc1NS(=O)(=O)C(F)(F)F)c1ccccc1 [Compound 183] | 2 | 22 | – | – |
| CC(=Nn1c(=O)oc2ccccc21)c1cc(Cl)ccc1NS(=O)(=O)C(F)(F)F [Compound 184, N-[4-Chloro-2-(1-(2(3H)-oxo-benzoxazol-3-yl)imino)ethylphenyl]-trifluoromethanesulfonamide] | 2 | 12 | – | – |
| CC(=Nn1cccn1)c1cc(Cl)ccc1NS(=O)(=O)C(F)(F)F [Compound 185] | – | – | 2 | 11 |
